Molecules are shown by their SMILES. Where a name gives a salt, the structure may show the parent alone.

This passage reports melting point results from US6875761B2 (Eisai Co., Ltd., priority 1997, dated 2005).

In the case of `CCN1CCN(c2nc(-c3ccc(S(=O)(=O)N4CCSCC4)cc3)cc3ccccc23)CC1` (as salt: hydrochloride) [Example 76, 3-[(4-Thiomorpholinyl)Sulfonylphenyl]-1-(4-Ethylpiperazin-1-Yl)Isoquinoline Hydrochloride], the melting point was 268 to 270 °C (dec.).

`CCN1CCN(c2nc(-c3csc(CO)c3)cc3ccccc23)CC1` (as salt: hydrochloride) [Example 161, 1-(1-ethylpiperazin-4-yl)-3-(2-hydroxymethylthiophen-4-yl)isoquinoline dihydrochloride] registered a melting point of 170 °C.

As for `CCN1CCN(c2nc(-c3ccc(OCCO)cc3)cc3sccc23)CC1` (as salt: hydrochloride) [Example 286, dihydrochloride], the melting point was in the range of 128 to 129 °C.

`CCN1CCN(c2nc(-c3ccc(C(O)C4CCCCC4)cc3)cc3ccsc23)CC1` (stereo not shown) (as salt: hydrochloride) [Example 457, 7-(4-Ethylpiperazin-1-yl)-5-[4-(cyclohexylhydroxymethyl)phenyl]thieno[2,3-c]pyridine dihydrochloride] gave a melting point of 127.5 to 129 °C.

In the case of `CCN1CCN(c2nc(-c3ccc(N4CCOC4=O)cc3)cc3ccccc23)CC1` (as salt: hydrochloride) [Example 95, 3-[4-(3-Oxazolidinone)phenyl]-1-(4-ethylpiperazin-1-yl)isoquinoline Hydrochloride], the melting point lay in the range of 171 to 174 °C.

In turn, `CCN1CCN(c2nc(-c3ccc(OC[C@@H](C)O)cc3)cc3ccsc23)CC1` (as salt: hydrochloride) [Example 435, 7-(4-ethylpiperazin-1-yl)-5-[4-(2-hydroxypropoxy)phenyl]thieno[2,3-c]pyridine dihydrochloride] came in with a melting point of 126 to 127 °C.

`CCN1CCN(c2nc(-c3ccc(OCCO)cc3)cc3cccnc23)CC1` (as salt: hydrochloride) [Example 245, 8-(1-ethylpiperazin-4-yl)-6-[4-(2-hydroxyethoxy)phenyl]-1,7-naphthyridine Dihydrochloride] gave a melting point of 137 to 143 °C.

Take `CCN1CCN(c2nc(-c3ccnc(OC)c3)cc3ccccc23)CC1` (as salt: hydrochloride) [Example 405, 1-(4-ethylpiperazin-1-yl)-3-(2-methoxypyridin-4-yl)isoquinoline]: the melting point is 174 to 176 °C.

The molecule `CCN1CCN(c2nc(-c3ccc(OC4CCCCC4O)cc3)cc3ccccc23)CC1` (stereo not shown) (as salt: hydrochloride) [Example 426, 1-(4-ethylpiperazin-1-yl)-3-[4-(2-hydroxycyclohexyloxy)phenyl]isoquinoline Hydrochloride] returned a melting point of 143 to 144 °C.

As for `CCN1CCN(c2nc(-c3ccc(CC(C)(C)CO)cc3)cc3ccccc23)CC1` (as salt: oxalate) [Example 389, 1-(4-Ethylpiperazin-1-yl)-3-[4-(3-Hydroxy-2,2-Dimethylpropyl)Phenyl]Isoquinoline Oxalate], the melting point lay within 194 to 195 °C.

In the case of `CCN1CCN(c2nc(-c3ccc(OC(C)COC)nc3)cc3ccsc23)CC1` (stereo not shown) (as salt: hydrochloride) [Example 267, 5-[2-(2-methoxyethoxy-2-methyl)pyridin-5-yl]-7-(4-ethylpiperazin-1-yl)thieno[2,3-c]pyridine Hydrochloride], the melting point fell in the range of 112 to 114 °C.

The molecule `CCN1CCN(c2nc(-c3ccc(C(=O)NC)cc3)cc3ccccc23)CC1` (as salt: hydrochloride) [Example 365, 1-(4-ethylpiperazin-1-yl)-3-[4-(N-methylcarbamoyl)phenyl]isoquinoline dihydrochloride] yielded a melting point of 161.5 to 163 °C.

In turn, `CCN1CCN(c2nc(-c3ccc(CCCO)c(C#N)c3)cc3ccsc23)CC1` (as salt: oxalate) [Example 262, 5-[4-(3-hydroxypropyl)-3-cyanophenyl]-7-(4-ethylpiperazin-1-yl)thieno[2,3-c]pyridine Oxalate] showed a melting point of 132 to 134 °C.

As usually defined, the melting point is the temperature of the solid-liquid transition.
